Read-outs that look alike come from different tables or passages of the source.
How the values were obtained:
[1] = system: pre-mRNA splicing in HCT-116 cells; experiment: RNA-seq analysis of splicing changes, parental HCT-116; type: cell-based, human; settings: 2 μM indisulam
Source text: RNAs were extracted using Quick-RNA MiniPrep kit (Zymo Research). After cleaning up genomic DNA contaminant with Turbo DNase (Life Technologies) and rRNA depletion, strand-specific cDNA libraries were generated using the TruSeq Stranded mRNA Sample Prep Kit (IIlumina) and were subjected to high throughput sequencing using
HiSeq2500 platform (Illumina) with 100-bp single-end reads. NGS QC Toolkit (v2.3.1) (49) was used to check the sequencing quality, and high-quality reads were aligned by TopHat (v2.0.8) (50) to human reference genome (hg19) along with the gene annotation data downloaded from Illumina's iGenomes (support.illumina.com/sequencing/sequencing_software/igenome.ilmn). The insert-size metrics required in TopHat execution and the correctness of strand specificity were estimated by mapping reads to human transcript sequences using Bowtie (v2.1.0) (51) and Picard-tools (v1.99) (picard.sourceforge.net). The htseq-count script distributed with the HTSeq Python package (0.6.1) (pypi.python.org/pypi/HTSeq) was employed for counting reads in genes considering the coding strands. Source data for RNA sequencing data is available under NCBI SRA accession SRP096666.
For the stringent detection of differential skipped exons and retained introns, a custom program called SpliceFisher was developed and it is downloadable at github.com/jiwoongbio/SpliceFisher. Exonic and intronic regions were defined as annotated in the reference genome. To estimate differential exon skipping events, the numbers of exon-junction reads (panels a and b in FIG. 16) and exon-skipping reads (panel c in FIG. 16) observed in a sample were compared to the numbers observed in another sample. […] Additionally, the number of reads mapped to the target region (panel d in FIG. 16) and other exonic regions of the gene (panel e in FIG. 16) were also compared between samples. The read counts were evaluated by multiple Fisher's exact tests in three two-by-two tables using R and then the p-values were adjusted using FDR by each comparison type. Differential alternative splicing events were identified with all three adjusted p-values less than 0.01. The differential alternative splice sites and mutually exclusive exons were additionally detected by a similar method using the numbers of splicing reads supporting each junction.

[2] = system: HCT-116 cells expressing wild type or mutant RBM39; experiment: Transient transfection of RBM39 cDNA, crystal violet staining; type: cell-based, human; settings: 2 μM indisulam
Protocol: RBM39 was PCR amplified from U2OS cDNA and cloned into pLVX IRES zsGreen1 (Clontech). Mutagenesis of RBM39 was performed using Q5 site-directed mutagenesis kit (NEB) and primers were designed using the NEBaseChanger web server (nebasechanger.neb.com/). For transient transfection, 0.1 million HCT-116 cells were seeded per well in a 12-well plate on day 1. On day 2, cells were transfected with 1 μg of plasmid (pLVX IRES zsGreen containing wild type or mutant RBM39). […] For crystal violet staining, cells on plates were stained with 0.05% crystal violet, 1% formaldehyde in 1×PBS for 20 min at room temperature, followed by several rinses with deionized water to remove free stain.

H2073 = experiment: IC50 assay, NSCLC cell lines (Cell Titer Glo, total ATP); type: cell-based, human
Protocol: (§1) Cells were plated at ˜15% confluence in a media comprising 5% concentration of fetal bovine serum supplemented with RPMI, which included 2 mM L-Glutamine in a 96 well dish. […] Following three days of incubation in a 5% CO2 incubator, the total ATP in each well was quantified using Cell Titer Glo (Promega). […] The solid lines represent the medians.

H650 = experiment: as above; type: cell-based, human; settings: U2AF1 WT (listed twice)
Protocol: as §1

RBM39-3xFLAG complex = molecular target: T1, RBM39-3xFLAG complex (Homo sapiens, UniProt Q14498+Q66K64); experiment: Immunoprecipitation of RBM39 complex +/− indisulam, LC-MS/MS (Table 1); settings: H1155 RBM39-3xFLAG cells; 10 μM indisulam 2 hours
T1 construct: endogenous in cells; host or cells: H1155 RBM39-3xFLAG knock-in cells
Protocol: Anti-Flag M2 antibody (Sigma-Aldrich) was coupled to Dynabeads M-270 epoxy beads (Life Technologies) at the ratio of 10 μg of antibody/mg beads. […] Frozen cells were then pulverized in the a cryomill (Retsch) with one 25 mm steel ball and five cycles of three min at 25 Hz with intermittent cooling in liquid nitrogen. […] The lysates were centrifuged at 8000 g for 5 min at 4° C. 12 mg of conjugated Anti-Flag magnetic beads were mixed with clarified lysates for 5 min at 4° C. on a rotating platform, followed by three washes with IP buffer. Bound proteins were eluted with 1 mg/ml 3xFLAG peptide, followed by SDS-PAGE on a 10% Bis Tris gel. After brief electrophoresis, bands containing all the proteins were cut with clean blades. For western blotting of co-immunoprecipitated proteins, anti-DDA1 (ProteinTech, 14995-1-AP, 1:1000), anti-DDB1 (Abcam, ab109027, 1;10000), anti-CUL4A (Cell Signaling, 2699, 1:1000), anti-CUL4B (ProteinTech, 12916-1-AP, 1:1000) were used.
Excised gel bands were cut into approximately 1 mm^3 pieces. Gel pieces were then subjected to a modified in-gel trypsin digestion procedure (46). Gel pieces were washed and dehydrated with acetonitrile for 10 min. followed by removal of acetonitrile. Pieces were then completely dried in a speed-vac. […] Peptides were detected, isolated, and fragmented to produce a tandem mass spectrum of specific fragment ions for each peptide. […]

With `NS(=O)(=O)c1ccc(S(=O)(=O)Nc2cccc3c(Cl)c[nH]c23)cc1` [Indisulam, indisulam] the exon skipping events ([1]; 6 hours) was 327, the introns retained ([1]; 6 hours) was 107 and the exon skipping events ([1]; 12 hours) was 837. The introns retained ([1]; 12 hours) was 303, the “cell survival (crystal violet)” value ([2]; mock-transfected or wild type RBM39) was “not indisulam resistant” and the “cell survival (crystal violet)” value ([2]; transient expression of eight different RBM39 mutants) was “conferred resistance”. For the same compound, the IC50 (H2073; Homo sapiens, NCI-H2073, read-out: Indisulam IC50 (log 10) (converted), U2AF1 WT) was 2.57 µM, the IC50 (H2073; read-out: Indisulam IC50, U2AF1 WT) was 2.57 µM and the “Indisulam IC50 (log 10)” value (H650; H650) was −4.839 (log 10) (M). For the same compound, the IC50 (H650; Homo sapiens, NCI-H650, read-out: Indisulam IC50 (log 10), H650 (converted)) was 13.6 µM, the IC50 (H650; Homo sapiens, NCI-H650, read-out: Indisulam IC50, H650) was 13.6 µM and the IC50 (H650; read-out: Indisulam IC50, H650) was 14.5 µM. For the same compound, the “recruitment of RBM39 to CUL4, DDB1, DDA1, DCAF15 CRL complex (shotgun mass spectrometry)” value (RBM39-3xFLAG complex) was “induces recruitment of RBM39”.

— US20180140578A1, “METHODS AND COMPOSITIONS FOR THE DIAGNOSIS AND SELECTIVE TREATMENT OF CANCER” (Board of Regents of the University of Texas System, priority 2016, published 2018)
